# Experimental data published in the NIST ThermoML archive (doi:10.1016/j.jct.2016.09.005).
# Numbers after ± are expanded uncertainties.
# Details: Fluid (supercritical or subcritical phases), Brillouin Light Scattering
smiles,measurement,setting,value
CC(C)OC(C)C [diisopropyl ether],speed of sound,"541.51 K, 6500 kPa",190.79 ± 4.2 m/s
same,speed of sound,"544.16 K, 3500 kPa",139.1 ± 2.2 m/s
same,speed of sound,"545.71 K, 4500 kPa",129.23 ± 2 m/s
same,speed of sound,"546.93 K, 5500 kPa",147.8 ± 3.2 m/s
same,speed of sound,"547.24 K, 6500 kPa",183.8 ± 4 m/s
same,speed of sound,"551 K, 3500 kPa",147.92 ± 2.4 m/s
same,speed of sound,"554.09 K, 4500 kPa",137.04 ± 2.1 m/s
same,speed of sound,"554.6 K, 5500 kPa",142.16 ± 2.6 m/s
same,speed of sound,"555.23 K, 6500 kPa",172.31 ± 3.6 m/s
same,speed of sound,"556.02 K, 3500 kPa",156.04 ± 2.5 m/s
same,speed of sound,"562.71 K, 3500 kPa",162.02 ± 2.5 m/s
same,speed of sound,"564.46 K, 4500 kPa",151.45 ± 2.4 m/s
same,speed of sound,"564.68 K, 5500 kPa",144.2 ± 2.3 m/s
same,speed of sound,"564.77 K, 6500 kPa",162.69 ± 2.9 m/s
same,speed of sound,"568.12 K, 3500 kPa",172.59 ± 2.7 m/s
same,speed of sound,"570.23 K, 4500 kPa",159.8 ± 2.5 m/s
same,speed of sound,"570.32 K, 6500 kPa",155.46 ± 2.5 m/s
same,speed of sound,"571.21 K, 5500 kPa",149.54 ± 2.3 m/s
same,speed of sound,"572.24 K, 3500 kPa",178.24 ± 2.7 m/s
same,speed of sound,"574.75 K, 6500 kPa",156.08 ± 2.4 m/s
same,speed of sound,"575.87 K, 4500 kPa",166.92 ± 2.6 m/s
same,speed of sound,"576.95 K, 5500 kPa",157.61 ± 2.4 m/s
same,speed of sound,"578.05 K, 3500 kPa",184.2 ± 2.8 m/s
same,speed of sound,"580.81 K, 6500 kPa",160.95 ± 2.5 m/s
same,speed of sound,"582.97 K, 4500 kPa",176.94 ± 2.7 m/s
same,speed of sound,"583.61 K, 3500 kPa",191.39 ± 2.9 m/s
same,speed of sound,"583.79 K, 5500 kPa",168.45 ± 2.6 m/s
same,speed of sound,"586.87 K, 6500 kPa",165.44 ± 2.5 m/s
same,speed of sound,"587.28 K, 5500 kPa",174.08 ± 2.7 m/s
same,speed of sound,"588.06 K, 4500 kPa",184.23 ± 2.8 m/s
same,speed of sound,"588.82 K, 3500 kPa",197.63 ± 3 m/s
same,speed of sound,"591.77 K, 3500 kPa",201.8 ± 3 m/s
same,speed of sound,"592.03 K, 6500 kPa",173.69 ± 2.6 m/s
same,speed of sound,"592.07 K, 4500 kPa",191.01 ± 2.9 m/s
same,speed of sound,"592.51 K, 5500 kPa",179.58 ± 2.8 m/s
same,speed of sound,"595.88 K, 6500 kPa",181.47 ± 2.7 m/s
same,speed of sound,"597.6 K, 4500 kPa",197.93 ± 2.9 m/s
same,speed of sound,"597.6 K, 5500 kPa",185.96 ± 2.8 m/s
same,speed of sound,"597.62 K, 3500 kPa",207.01 ± 3 m/s
same,speed of sound,"602.12 K, 3500 kPa",213.74 ± 3.1 m/s
same,speed of sound,"602.56 K, 4500 kPa",203.87 ± 3 m/s
same,speed of sound,"603.22 K, 6500 kPa",189.62 ± 2.8 m/s
same,speed of sound,"603.37 K, 5500 kPa",196.7 ± 3 m/s
same,speed of sound,"607.19 K, 4500 kPa",209.92 ± 3.1 m/s
same,speed of sound,"607.26 K, 5500 kPa",201.24 ± 3 m/s
same,speed of sound,"608.3 K, 3500 kPa",220.34 ± 3.2 m/s
same,speed of sound,"608.98 K, 6500 kPa",198.69 ± 3 m/s
same,speed of sound,"612.23 K, 3500 kPa",223.95 ± 3.3 m/s
same,speed of sound,"612.23 K, 4500 kPa",214.66 ± 3.1 m/s
same,speed of sound,"612.33 K, 5500 kPa",208.84 ± 3.1 m/s
same,speed of sound,"612.73 K, 6500 kPa",201.04 ± 3 m/s
same,speed of sound,"617.47 K, 4500 kPa",220.52 ± 3.2 m/s
same,speed of sound,"618 K, 3500 kPa",231.2 ± 3.4 m/s
same,speed of sound,"618.05 K, 5500 kPa",215.78 ± 3.2 m/s
same,speed of sound,"618.31 K, 6500 kPa",208.27 ± 3.1 m/s
same,speed of sound,"622.27 K, 3500 kPa",235.81 ± 3.4 m/s
same,speed of sound,"623.05 K, 5500 kPa",219.38 ± 3.2 m/s
same,speed of sound,"623.51 K, 4500 kPa",226.31 ± 3.3 m/s
same,speed of sound,"623.75 K, 6500 kPa",213.55 ± 3.2 m/s
same,speed of sound,"626.85 K, 5500 kPa",224.98 ± 3.3 m/s
same,speed of sound,"627.63 K, 6500 kPa",217.44 ± 3.2 m/s
same,speed of sound,"627.65 K, 3500 kPa",240.7 ± 3.5 m/s
same,speed of sound,"628.55 K, 4500 kPa",231.82 ± 3.4 m/s
same,speed of sound,"632.23 K, 4500 kPa",235.83 ± 3.4 m/s
same,speed of sound,"632.72 K, 5500 kPa",227.82 ± 3.4 m/s
same,speed of sound,"632.86 K, 3500 kPa",243.95 ± 3.5 m/s
same,speed of sound,"633.54 K, 6500 kPa",221.63 ± 3.3 m/s
same,speed of sound,"637.16 K, 6500 kPa",225.18 ± 3.3 m/s
same,speed of sound,"638.22 K, 3500 kPa",249.88 ± 3.6 m/s
same,speed of sound,"638.59 K, 4500 kPa",240.88 ± 3.5 m/s
same,speed of sound,"638.75 K, 5500 kPa",232.85 ± 3.4 m/s
same,speed of sound,"642.34 K, 6500 kPa",228.66 ± 3.4 m/s
same,speed of sound,"643.55 K, 4500 kPa",245.98 ± 3.6 m/s
same,speed of sound,"643.72 K, 3500 kPa",254.88 ± 3.7 m/s
same,speed of sound,"644.35 K, 5500 kPa",237.43 ± 3.5 m/s
same,speed of sound,"648.15 K, 5500 kPa",239.71 ± 3.5 m/s
same,speed of sound,"648.16 K, 6500 kPa",231.72 ± 3.4 m/s
same,speed of sound,"648.36 K, 3500 kPa",257.88 ± 3.7 m/s
same,speed of sound,"648.6 K, 4500 kPa",250.01 ± 3.6 m/s
same,speed of sound,"652.25 K, 4500 kPa",253.58 ± 3.7 m/s
same,speed of sound,"652.83 K, 5500 kPa",244.43 ± 3.6 m/s
same,speed of sound,"653.38 K, 3500 kPa",263.46 ± 3.8 m/s
same,speed of sound,"653.97 K, 6500 kPa",236.88 ± 3.5 m/s
same,speed of sound,"657.92 K, 5500 kPa",246.91 ± 3.6 m/s
same,speed of sound,"658.37 K, 4500 kPa",256.34 ± 3.7 m/s
same,speed of sound,"658.49 K, 6500 kPa",239.95 ± 3.5 m/s
same,speed of sound,"658.61 K, 3500 kPa",265.77 ± 3.8 m/s
same,speed of sound,"662.18 K, 5500 kPa",249.76 ± 3.7 m/s
same,speed of sound,"662.28 K, 4500 kPa",259.34 ± 3.7 m/s
same,speed of sound,"663.04 K, 6500 kPa",242.15 ± 3.5 m/s
same,speed of sound,"664.11 K, 3500 kPa",269.84 ± 3.9 m/s
same,speed of sound,"667.5 K, 5500 kPa",252.59 ± 3.7 m/s
same,speed of sound,"667.83 K, 4500 kPa",264.18 ± 3.8 m/s
same,speed of sound,"667.84 K, 6500 kPa",245.05 ± 3.6 m/s
same,speed of sound,"668.59 K, 3500 kPa",271.89 ± 3.9 m/s
same,speed of sound,"670.57 K, 5500 kPa",254.53 ± 3.7 m/s
same,speed of sound,"671.41 K, 6500 kPa",247.45 ± 3.6 m/s
same,speed of sound,"672.38 K, 4500 kPa",265.43 ± 3.8 m/s
same,speed of sound,"672.56 K, 3500 kPa",274.52 ± 3.9 m/s
